Measurements published in the supplement of paper PMC10307832.

How the values were obtained:
Experiment in all cases: relative viability (nuclei count vs DMSO), 5 days (fraction); higher = more cells survive
FH535 = compound: CC1=C(C=CC(=C1)[N+](=O)[O-])NS(=O)(=O)C2=C(C=CC(=C2)Cl)Cl [FH535]
Procedure, shortened: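 Viability was read as treated-well nuclei divided by vehicle-well nuclei, using the median across plates. Lung cancer cell lines in 1536-well plates were kept overnight at 37 °C, pinned with five √10-spaced library-drug doses, and after 5 days were Hoechst-stained, imaged at 4× and counted in MetaXpress. Plates passed only with control CV below 25% and at least one doubling.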

FH535 + Crizotinib = compound: CC1=C(C=CC(=C1)[N+](=O)[O-])NS(=O)(=O)C2=C(C=CC(=C2)Cl)Cl [FH535] + C[C@@H](Oc1cc(-c2cnn(C3CCNCC3)c2)cnc1N)c1c(Cl)ccc(F)c1Cl [Crizotinib] (partner 1 µM)
Procedure, shortened: (§1)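 Medians of duplicate plates are given as relative viability. That measure is the nuclei count in treated wells divided by the count in vehicle wells. Counts were taken on 4× images of lung cancer cell lines in 1536-well plates, 5 days after pin-tool dosing the day after seeding with one drug alone or a fixed anchor-drug dose plus five library-drug doses (not always all listed) in √10 steps.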

FH535 + Luminespib = compound: CC1=C(C=CC(=C1)[N+](=O)[O-])NS(=O)(=O)C2=C(C=CC(=C2)Cl)Cl [FH535] + CCNC(=O)c1noc(-c2cc(C(C)C)c(O)cc2O)c1-c1ccc(CN2CCOCC2)cc1 [Luminespib] (partner 0.01 µM)
Procedure, shortened: as §1

FH535 + Vorinostat = compound: CC1=C(C=CC(=C1)[N+](=O)[O-])NS(=O)(=O)C2=C(C=CC(=C2)Cl)Cl [FH535] + O=C(CCCCCCC(=O)Nc1ccccc1)NO [Vorinostat] (partner 1 µM)
Procedure, shortened: as §1

FH535 + Linsitinib = compound: CC1=C(C=CC(=C1)[N+](=O)[O-])NS(=O)(=O)C2=C(C=CC(=C2)Cl)Cl [FH535] + C[C@]1(O)C[C@@H](c2nc(-c3ccc4ccc(-c5ccccc5)nc4c3)c3c(N)nccn32)C1 [Linsitinib] (partner 1 µM)
Procedure, shortened: as §1

Cell Line: ChaGo-K-1
- relative viability (FH535; 0.04 µM): 0.91
- relative viability (FH535; 0.1265 µM): 1.06
- relative viability (FH535; 0.4 µM): 0.887
- relative viability (FH535; 1.265 µM): 0.775
- relative viability (FH535 + Crizotinib; first compound 0.04 µM): 1.05
- relative viability (FH535 + Crizotinib; first compound 0.1265 µM): 1.19
- relative viability (FH535 + Crizotinib; first compound 0.4 µM): 1.09
- relative viability (FH535 + Crizotinib; first compound 1.265 µM): 0.708
- relative viability (FH535 + Luminespib; first compound 0.04 µM): 0.653
- relative viability (FH535 + Luminespib; first compound 0.1265 µM): 0.665
- relative viability (FH535 + Luminespib; first compound 0.4 µM): 0.55
- relative viability (FH535 + Luminespib; first compound 1.265 µM): 0.576
- relative viability (FH535 + Vorinostat; first compound 0.04 µM): 0.469
- relative viability (FH535 + Vorinostat; first compound 0.1265 µM): 0.732
- relative viability (FH535 + Vorinostat; first compound 0.4 µM): 0.693
- relative viability (FH535 + Vorinostat; first compound 1.265 µM): 0.59

Cell Line: EKVX
- relative viability (FH535; 0.04 µM): 0.987
- relative viability (FH535; 0.1265 µM): 0.951
- relative viability (FH535; 0.4 µM): 0.905
- relative viability (FH535; 1.265 µM): 0.773
- relative viability (FH535 + Crizotinib; first compound 0.04 µM): 0.824
- relative viability (FH535 + Crizotinib; first compound 0.1265 µM): 1.07
- relative viability (FH535 + Crizotinib; first compound 0.4 µM): 0.998
- relative viability (FH535 + Crizotinib; first compound 1.265 µM): 0.609
- relative viability (FH535 + Luminespib; first compound 0.04 µM): 0.876
- relative viability (FH535 + Luminespib; first compound 0.1265 µM): 0.935
- relative viability (FH535 + Luminespib; first compound 0.4 µM): 0.859
- relative viability (FH535 + Luminespib; first compound 1.265 µM): 0.764
- relative viability (FH535 + Linsitinib; first compound 0.04 µM): 1.03
- relative viability (FH535 + Linsitinib; first compound 0.1265 µM): 1.05
- relative viability (FH535 + Linsitinib; first compound 0.4 µM): 0.967
- relative viability (FH535 + Linsitinib; first compound 1.265 µM): 0.854
- relative viability (FH535 + Vorinostat; first compound 0.04 µM): 0.403
- relative viability (FH535 + Vorinostat; first compound 0.1265 µM): 0.819
- relative viability (FH535 + Vorinostat; first compound 0.4 µM): 0.693
- relative viability (FH535 + Vorinostat; first compound 1.265 µM): 0.222

Cell Line: EMC-BAC-2
- relative viability (FH535; 0.04 µM): 0.808
- relative viability (FH535; 0.1265 µM): 0.953
- relative viability (FH535; 0.4 µM): 0.913
- relative viability (FH535; 1.265 µM): 0.839
- relative viability (FH535 + Crizotinib; first compound 0.04 µM): 0.766
- relative viability (FH535 + Crizotinib; first compound 0.1265 µM): 0.799
- relative viability (FH535 + Crizotinib; first compound 0.4 µM): 0.739
- relative viability (FH535 + Crizotinib; first compound 1.265 µM): 0.677
- relative viability (FH535 + Luminespib; first compound 0.04 µM): 1.21
- relative viability (FH535 + Luminespib; first compound 0.1265 µM): 1.23
- relative viability (FH535 + Luminespib; first compound 0.4 µM): 1.12
- relative viability (FH535 + Luminespib; first compound 1.265 µM): 1.04
- relative viability (FH535 + Linsitinib; first compound 0.04 µM): 0.822
- relative viability (FH535 + Linsitinib; first compound 0.1265 µM): 0.873
- relative viability (FH535 + Linsitinib; first compound 0.4 µM): 0.771
- relative viability (FH535 + Linsitinib; first compound 1.265 µM): 0.753
- relative viability (FH535 + Vorinostat; first compound 0.04 µM): 0.297
- relative viability (FH535 + Vorinostat; first compound 0.1265 µM): 0.449
- relative viability (FH535 + Vorinostat; first compound 0.4 µM): 0.419
- relative viability (FH535 + Vorinostat; first compound 1.265 µM): 0.308

Cell Line: EPLC-272H
- relative viability (FH535; 0.04 µM): 0.838
- relative viability (FH535; 0.1265 µM): 0.934
- relative viability (FH535; 0.4 µM): 0.796
- relative viability (FH535; 1.265 µM): 0.774
- relative viability (FH535 + Crizotinib; first compound 0.04 µM): 0.943
- relative viability (FH535 + Crizotinib; first compound 0.1265 µM): 1.07
- relative viability (FH535 + Crizotinib; first compound 0.4 µM): 0.868
- relative viability (FH535 + Crizotinib; first compound 1.265 µM): 0.838
- relative viability (FH535 + Luminespib; first compound 0.04 µM): 0.277
- relative viability (FH535 + Luminespib; first compound 0.1265 µM): 0.357
- relative viability (FH535 + Luminespib; first compound 0.4 µM): 0.505
- relative viability (FH535 + Luminespib; first compound 1.265 µM): 0.197
- relative viability (FH535 + Linsitinib; first compound 0.04 µM): 1.04
- relative viability (FH535 + Linsitinib; first compound 0.1265 µM): 1.17
- relative viability (FH535 + Linsitinib; first compound 0.4 µM): 1.03
- relative viability (FH535 + Linsitinib; first compound 1.265 µM): 1.05
- relative viability (FH535 + Vorinostat; first compound 0.04 µM): 0.442
- relative viability (FH535 + Vorinostat; first compound 0.1265 µM): 0.42
- relative viability (FH535 + Vorinostat; first compound 0.4 µM): 0.437
- relative viability (FH535 + Vorinostat; first compound 1.265 µM): 0.406

Cell Line: H3255
- relative viability (FH535; 0.04 µM): 0.953
- relative viability (FH535; 0.1265 µM): 0.945
- relative viability (FH535; 0.4 µM): 0.955
- relative viability (FH535; 1.265 µM): 0.745
- relative viability (FH535 + Crizotinib; first compound 0.04 µM): 0.896
- relative viability (FH535 + Crizotinib; first compound 0.1265 µM): 0.806
- relative viability (FH535 + Crizotinib; first compound 0.4 µM): 0.853
- relative viability (FH535 + Crizotinib; first compound 1.265 µM): 0.705
- relative viability (FH535 + Luminespib; first compound 0.04 µM): 0.849
- relative viability (FH535 + Luminespib; first compound 0.1265 µM): 0.892
- relative viability (FH535 + Luminespib; first compound 0.4 µM): 0.911
- relative viability (FH535 + Luminespib; first compound 1.265 µM): 0.44
- relative viability (FH535 + Linsitinib; first compound 0.04 µM): 0.87
- relative viability (FH535 + Linsitinib; first compound 0.1265 µM): 1.04
- relative viability (FH535 + Linsitinib; first compound 0.4 µM): 0.884
- relative viability (FH535 + Linsitinib; first compound 1.265 µM): 0.727
- relative viability (FH535 + Vorinostat; first compound 0.04 µM): 0.804
- relative viability (FH535 + Vorinostat; first compound 0.1265 µM): 0.753
- relative viability (FH535 + Vorinostat; first compound 0.4 µM): 0.729
- relative viability (FH535 + Vorinostat; first compound 1.265 µM): 0.654

Cell Line: HARA
- relative viability (FH535; 0.04 µM): 0.855
- relative viability (FH535; 0.1265 µM): 0.876
- relative viability (FH535; 0.4 µM): 0.779
- relative viability (FH535; 1.265 µM): 0.711
- relative viability (FH535 + Crizotinib; first compound 0.04 µM): 1.06
- relative viability (FH535 + Crizotinib; first compound 0.1265 µM): 1.08
- relative viability (FH535 + Crizotinib; first compound 0.4 µM): 0.929
- relative viability (FH535 + Crizotinib; first compound 1.265 µM): 0.52
- relative viability (FH535 + Luminespib; first compound 0.04 µM): 0.52
- relative viability (FH535 + Luminespib; first compound 0.1265 µM): 0.869
- relative viability (FH535 + Luminespib; first compound 0.4 µM): 0.726
- relative viability (FH535 + Luminespib; first compound 1.265 µM): 0.446
- relative viability (FH535 + Linsitinib; first compound 0.04 µM): 0.774
- relative viability (FH535 + Linsitinib; first compound 0.1265 µM): 0.889
- relative viability (FH535 + Linsitinib; first compound 0.4 µM): 1.03
- relative viability (FH535 + Linsitinib; first compound 1.265 µM): 0.584
- relative viability (FH535 + Vorinostat; first compound 0.04 µM): 0.376
- relative viability (FH535 + Vorinostat; first compound 0.1265 µM): 0.489
- relative viability (FH535 + Vorinostat; first compound 0.4 µM): 0.511
- relative viability (FH535 + Vorinostat; first compound 1.265 µM): 0.341

Cell Line: HCC-15
- relative viability (FH535; 0.04 µM): 0.928
- relative viability (FH535; 0.1265 µM): 0.998
- relative viability (FH535; 0.4 µM): 0.841
- relative viability (FH535; 1.265 µM): 0.786
- relative viability (FH535 + Crizotinib; first compound 0.04 µM): 0.798
- relative viability (FH535 + Crizotinib; first compound 0.1265 µM): 0.819
- relative viability (FH535 + Crizotinib; first compound 0.4 µM): 0.747
- relative viability (FH535 + Crizotinib; first compound 1.265 µM): 0.52
- relative viability (FH535 + Luminespib; first compound 0.04 µM): 0.287
- relative viability (FH535 + Luminespib; first compound 0.1265 µM): 0.302
- relative viability (FH535 + Luminespib; first compound 0.4 µM): 0.255
- relative viability (FH535 + Luminespib; first compound 1.265 µM): 0.302
- relative viability (FH535 + Linsitinib; first compound 0.04 µM): 0.879
- relative viability (FH535 + Linsitinib; first compound 0.1265 µM): 0.862
- relative viability (FH535 + Linsitinib; first compound 0.4 µM): 0.884
- relative viability (FH535 + Linsitinib; first compound 1.265 µM): 0.595
- relative viability (FH535 + Vorinostat; first compound 0.04 µM): 0.733
- relative viability (FH535 + Vorinostat; first compound 0.1265 µM): 0.85
- relative viability (FH535 + Vorinostat; first compound 0.4 µM): 0.838
- relative viability (FH535 + Vorinostat; first compound 1.265 µM): 0.696

Cell Line: HCC-44
- relative viability (FH535; 0.04 µM): 0.994
- relative viability (FH535; 0.1265 µM): 0.943
- relative viability (FH535; 0.4 µM): 0.836
- relative viability (FH535; 1.265 µM): 0.747
- relative viability (FH535 + Crizotinib; first compound 0.04 µM): 0.908
- relative viability (FH535 + Crizotinib; first compound 0.1265 µM): 0.755
- relative viability (FH535 + Crizotinib; first compound 0.4 µM): 0.75
- relative viability (FH535 + Crizotinib; first compound 1.265 µM): 0.682
- relative viability (FH535 + Luminespib; first compound 0.04 µM): 1.09
- relative viability (FH535 + Luminespib; first compound 0.1265 µM): 1.16
- relative viability (FH535 + Luminespib; first compound 0.4 µM): 1.02
- relative viability (FH535 + Luminespib; first compound 1.265 µM): 0.575
- relative viability (FH535 + Linsitinib; first compound 0.04 µM): 0.704
- relative viability (FH535 + Linsitinib; first compound 0.1265 µM): 0.647
- relative viability (FH535 + Linsitinib; first compound 0.4 µM): 0.705
- relative viability (FH535 + Linsitinib; first compound 1.265 µM): 0.469
- relative viability (FH535 + Vorinostat; first compound 0.04 µM): 1.11
- relative viability (FH535 + Vorinostat; first compound 0.1265 µM): 1.1
- relative viability (FH535 + Vorinostat; first compound 0.4 µM): 1.03
- relative viability (FH535 + Vorinostat; first compound 1.265 µM): 0.818
